The supplement of paper PMC11208160

Assay: recombinant barcode read abundance after kanamycin selection (control-corrected) (log10(CPM+1)); higher = more efficient recombination; sequences stand for … in AGTGCAGAGAAAATCGGCCAGTTTTCTCTGCCTGCAGTCCGCATGCCGT…AGATTTATGCAGCGGACTGCCTTTCTCCCAAAGTGATAAACCGGACAGTATCATGGACCGGTTTTCCCGGTAATCCGTATTTGCAAGGTTGGTTTCACT; site = the 11-nt target
Method in brief: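 Reported as log10(CPM+1), each value stands for recombination efficiency. That efficiency is the averaged, control-corrected counts per million of barcodes found at recombinant junctions. Cells from a pooled E. coli library pairing targets with IS621 bridge RNA target-binding loops were plated twice on chloramphenicol/ampicillin LB agar (control) and twice on chloramphenicol/ampicillin/kanamycin with 0.1 mM IPTG.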
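Further: IS621 recombinase and bridge RNA in Escherichia coli cells.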

Compared with “ATGTATTCTTGGGTTCTAACCTGTTGCCT (site AACTATTCTAG)”, “ATGTATTCTTGGGTTCTAACCTGTTGCCT (site ATGTATTCTAG)” is higher in “recombinant barcode read abundance (log10)” value: 0.0758 for the first, 0.828 for the second.

Compared with “ATGTCGTCTTGGGTTCTAACCTGTTGCCT (site AAGTCGTCTAG)”, “ATGTCGTCTTGGGTTCTAACCTGTTGCCT (site ACGTCGTCTAG)” is higher in “recombinant barcode read abundance (log10)” value: 0.0812 for the first, 0.296 for the second.

Compared with “ATGTCGTCTTGGGTTCTAACCTGTTGCCT (site AGGTCGTCTAG)”, “ATGTCGTCTTGGGTTCTAACCTGTTGCCT (site ATGTCGTCTAG)” is higher in “recombinant barcode read abundance (log10)” value: 0.141 for the first, 1.13 for the second.

Compared with “ATGTCTCCTTGGGTTCTAACCTGTTGCCT (site ATGTCTCCTAG)”, “ATGTCTCCTTGGGTTCTAACCTGTTGCCT (site CTGTCTCCTAG)” is lower in “recombinant barcode read abundance (log10)” value: 1 for the first, 0.0833 for the second.

“ATGTCTCCTTGGGTTCTAACCTGTTGCCT (site GTGTCTCCTAG)” and “ATGTCTCCTTGGGTTCTAACCTGTTGCCT (site TTGTCTCCTAG)” are within 0.2 log units of each other in “recombinant barcode read abundance (log10)” value: 0.0531 for the first, 0.228 for the second.

First: ATTAATCCTTGGGTTCTAACCTGTTGCCT (site ATTAAATCTAG)
Second: ATTAATCCTTGGGTTCTAACCTGTTGCCT (site ATTAATCCTAG)
The “recombinant barcode read abundance (log10)” value of the first is higher: 0.441 for the first, 0.0839 for the second.

“ATTACTACTTGGGTTCTAACCTGTTGCCT (site AATACTACTAG)” and “ATTACTACTTGGGTTCTAACCTGTTGCCT (site ACTACTACTAG)” are within 0.2 log units of each other in “recombinant barcode read abundance (log10)” value: 0.124 for the first, 0.0886 for the second.

“ATTACTACTTGGGTTCTAACCTGTTGCCT (site AGTACTACTAG)” and “ATTACTACTTGGGTTCTAACCTGTTGCCT (site ATTACTACTAG)” are within 0.2 log units of each other in “recombinant barcode read abundance (log10)” value: 0.343 for the first, 0.411 for the second.

First: ATTAGGGCTTGGGTTCTAACCTGTTGCCG (site ATTAGGGCTCG)
Second: ATTAGGGCTTGGGTTCTAACCTGTTGCCG (site ATTGGGGCTCT)
The “recombinant barcode read abundance (log10)” value of the first is higher: 0.413 for the first, 0.192 for the second.

Going from “ATTCAAACTTGGGTTCTAACCTGTTGCCT (site ATTCAAACTAG)” to “ATTCAAACTTGGGTTCTAACCTGTTGCCT (site GTTCAAACTAT)”, the “recombinant barcode read abundance (log10)” value falls from 0.788 to 0.088.

Going from “ATTCGGGCTTGGGTTCTAACCTGTTGCGT (site ATTCGAGCTGC)” to “ATTCGGGCTTGGGTTCTAACCTGTTGCGT (site ATTCGGGCTAC)”, the “recombinant barcode read abundance (log10)” value rises from 0.0603 to 2.07.

First: ATTGGGTCTTGGGTTCTAACCTGTTGCCT (site ATTGGATCTAG)
Second: ATTGGGTCTTGGGTTCTAACCTGTTGCCT (site ATTGGCTCTAG)
The “recombinant barcode read abundance (log10)” value of the first is higher: 0.445 for the first, 0.0688 for the second.

Going from “ATTGGGTCTTGGGTTCTAACCTGTTGCCT (site ATTGGGTCTAG)” to “ATTGGGTCTTGGGTTCTAACCTGTTGCCT (site ATTGGTTCTAG)”, the “recombinant barcode read abundance (log10)” value falls from 0.818 to 0.102.

Compared with “ATTTAACCTTGGGTTCTAACCTGTTGCGT (site ATTTAACCTAC)”, “ATTTAACCTTGGGTTCTAACCTGTTGCGT (site GGGGTGTCTCG)” is lower in “recombinant barcode read abundance (log10)” value: 2.11 for the first, 0.0805 for the second.

“ATTTCGACTTGGGTTCTAACCTGTTGCCT (site AATTCGACTAG)” and “ATTTCGACTTGGGTTCTAACCTGTTGCCT (site ACTTCGACTAG)” are within 0.2 log units of each other in “recombinant barcode read abundance (log10)” value: 0.0716 for the first, 0.044 for the second.

“ATTTCGACTTGGGTTCTAACCTGTTGCCT (site AGTTCGACTAG)” and “ATTTCGACTTGGGTTCTAACCTGTTGCCT (site ATTTCGACTAG)” are within 0.2 log units of each other in “recombinant barcode read abundance (log10)” value: 0.142 for the first, 0.16 for the second.

“CAAACATCTTGGGTTCTAACCTGTTGCCT (site CAAACAACTAG)” and “CAAACATCTTGGGTTCTAACCTGTTGCCT (site CAAACACCTAG)” are within 0.2 log units of each other in “recombinant barcode read abundance (log10)” value: 0.129 for the first, 0.0425 for the second.

“CAAACATCTTGGGTTCTAACCTGTTGCCT (site CAAACAGCTAG)” and “CAAACATCTTGGGTTCTAACCTGTTGCCT (site CAAACATCTAG)” are within 0.2 log units of each other in “recombinant barcode read abundance (log10)” value: 0.0169 for the first, 0.162 for the second.
